The source of these data is patent US20070208074A1, “Methods and compositions for treating and preventing tumors” (priority 2006, published 2007).

In one assay the test system is U87-S3C cells. The assay can be described thus: Cell spreading assay on myelin. The class given is cell-based. The note with it: recombinant human IL-8 50 ng/ml vs untreated U87-S3C cells on myelin; n=3, p<0.0005. The procedure:
FIG. 4I is a graph quantifying the level of normalized cell spreading. IL-8 addition rescues STAT3 suppression of glioma cell spreading on myelin.
1×10^4 cells were seeded onto glass coverslips pre-coated with polyornithine ([…]) and additionally coated with PBS or 20 μg/ml myelin. Where indicated recombinant human IL-8 (R&D) was added at a concentration of 50 ng/ml. Cells were incubated at 37° C. for 1 hour to attach and then fixed with 4% paraformaldehyde for 20 minutes at RT. Coverslips were stained with phallotoxin for 20 minutes according to the manufacturer's directions (Molecular probes). Nuclei were counterstained with 0.2 μg/ml Hoechst (Sigma). Spread versus unspread cells were counted blind, and a percentage of spread cells over the total number of cells calculated. Pictures were taken at 60× using a Nikon inverted microscope.

A further assay has as its system rat neural stem cells. In words: BrdU incorporation with LIF. The class given is cell-based. The note with it: LIF 10 ng/ml, 48 hrs; vector-infected cells vs no treatment; n=3, p<0.05. The procedure: FIG. 2E (right panel) is a bar graph showing BrdU incorporation in rat neural stem cells treated with LIF (10 ng/ml, 48 hrs) following infection with lentivirus and selection with puromycin.

The next assay has as its system U87 cells. In words: Growth curve with LIF. The class given is cell-based, human. The conditions noted are these: LIF 10 ng/ml daily; PTEN-deficient cell line. The protocol: (§1) FIG. 2B is a series of graphs showing growth curves of PTEN-mutant glioma cell lines (U87 and A172) and PTEN-expressing (SF188) glioma cells lines that were treated with LIF (10 ng/ml daily) or left untreated.

A further assay has as its system A172 cells. In words: Growth curve with LIF. Format: cell-based, human. The note with it: LIF 10 ng/ml daily; PTEN-deficient cell line. The procedure:
as §1

The subject of assay [1] is wild type PTEN-expressing glioma cells (SF188 and LN229). In words: LIF-induced STAT3 tyrosine phosphorylation, immunoblot. Format: cell-based, human. The conditions noted are these: serum starved 24 hours, 10 ng/ml LIF for 15 minutes. The procedure:
(§2) FIG. 2A is a series of immunoblots showing the levels of PYS3 and STAT3 in glioma cells that harbor PTEN mutations (U87, A172, and U138) or that express wild type PTEN (SF188 and LN229) with the STAT3 and PYS3 antibodies. Cells were serum starved for 24 hours and then treated with 100 ng/ml CNTF (C) or 10 ng/ml LIF (L) for 15 minutes.
(§3) The inhibition of the STAT3 signaling pathway was also evident in human glioma cell lines that harbor PTEN mutations.

Assay [2] deals with PTEN-deficient glioma cells (U87, A172, and U138). Described as above. Format: cell-based, human. The conditions noted are these: serum starved 24 hours, 10 ng/ml LIF for 15 minutes. The procedure: as §2, §3
The test system of another assay is LN229 cells. The assay can be described thus: Population growth with LIF after lentiviral infection. The class given is cell-based, human. The note with it: LIF 10 ng/ml daily; control lentivirus-infected LN229; n=3, p<0.05. From the text: FIG. 2D is a pair of immmunoblots showing STAT3 and actin levels in 293T cells infected with either control lentivirus or lentivirus encoding one of two small interfering hairpin RNAs directed at STAT3 and selected with puromycin (left panel). […] The right panel is a graph showing population growth of LN229 cells infected with control lentivirus or lentivirus encoding stat3i1 or stat3i2 and selected with puromycin.
Recombinant retroviruses were made by transfecting 293T cells with pMD.MLV gag.pol, pHDM.G (VSVG pseudotype), and the transfer plasmid (i.e. pBABE). Cells were infected with equal amounts of retroviruses in the presence of 8 μg/ml polybrene (Sigma). A population of infected cells for each construct was collected by sorting cells for GFP expression. PTEN−/− astrocytes were infected with pBABE or pBABE/S3C retroviruses and infected cells were selected with puromycin (4 μg/ml). PTEN flox/flox astrocytes were infected with MyrAkt and infected cells were selected with 250 μg/ml hygromycin (Invitrogen). Cloning of recombinant lentiviruses coding for a short hairpin RNA directed against STAT3 or human IL-8 was carried out using the pLL3.7 vector. […]

The subject of assay [3] is control neuroblastoma cell line SK-N-MC. In words: LIF-induced STAT3 tyrosine phosphorylation, immunoblot. Format: cell-based. The conditions noted are these: serum starved 24 hours, 10 ng/ml LIF for 15 minutes. In general terms: In western blotting, separated proteins are transferred to a membrane and probed.
Another assay has as its system SF188 cells. In words: Growth curve / population growth with LIF. Format: cell-based, human. The procedure:
as §1
FIG. 2C is a bar graph showing the population growth of SF188 cells infected with a retrovirus containing an IRES-GFP cassette alone or that also encodes wild type STAT3 or a dominant negative STAT3 (S3D).

For “IL-8: recombinant human IL-8 (R&D) added at 50 ng/ml”, the “cell spreading on myelin” value in the assay with U87-S3C cells is “significantly more U87-S3C cells spread on myelin”.

On to “LIF: cytokine ligand of leukemia inhibitory factor receptorβ (LIFRβ), used at 10 ng/ml”, for which, in the assay on rat neural stem cells, the BrdU incorporation entry is “significantly less BrdU incorporation”. The proliferation result in the assay on U87 cells and in the assay on A172 cells was “little effect on the proliferation” each time. The STAT3 tyrosine phosphorylation result in assay [1] is reported as “robustly induced STAT3 tyrosine phosphorylation”; in assay [2], “failed to effectively induce the STAT3 phosphorylation”; in [3] it was “robustly induced STAT3 tyrosine phosphorylation”. For the same substance, the population growth result in the assay with LN229 cells is on record as “significant reduction in growth”; in the assay on SF188 cells (LIF 10 ng/ml daily, SF188 infected with control-vector or wild type STAT3 retrovirus, n=3, p<0.01), “significant reduction in population growth”. Besides, the cell population growth result in the assay on SF188 cells (LIF 10 ng/ml daily vs untreated, n=3, p<0.05) is given as “significantly reduced”.
